ChEMBL document CHEMBL4837212, “Cytotoxic Compounds from the Stem Bark of Two subsp. of Bersama abyssinica” (J Nat Prod, 2021)
≈ marks a conversion by molar mass, not a printed value. Calls of active or inactive are those of the source. No cut-off for these calls is given here.

What was measured:
[1] = tested on: Mycolicibacterium smegmatis; experiment: Antibacterial activity against Mycobacterium smegmatis DSM ATCC 700084 assessed as growth inhibition by serial dilution assay; type: functional, organism-based
KB 3-1 = experiment: Cytotoxicity in human KB 3-1 cells assessed as reduction in cell viability measured after 5 days by MTT assay; type: functional, cell-based; details: KB 3-1, 120 h
Escherichia coli [2] = experiment: Antibacterial activity against Escherichia coli DSM 1116 assessed as growth inhibition by serial dilution assay; type: functional
Staphylococcus aureus = experiment: Antibacterial activity against Staphylococcus aureus DSM 346 assessed as growth inhibition by serial dilution assay; type: functional
Escherichia coli [3] = experiment: Antibacterial activity against Escherichia coli ATCC 8739 assessed as inhibition of bacterial growth measured after 18 hrs by Alamar blue assay; type: functional
Bacillus subtilis = experiment: Antibacterial activity against Bacillus subtilis DSM 10 assessed as growth inhibition by serial dilution assay; type: functional

SMILES | Activity [1] | IC50 (KB 3-1) [nM] | MIC (Escherichia coli [2]) [µM] | MIC (Staphylococcus aureus) [µM] | MIC (Escherichia coli [3]) [µM] | MIC (Bacillus subtilis) [µM]
CC12O[C@H]3C[C@@H](O1)[C@]1(C)[C@H]4CC[C@]5(C)[C@@H](c6ccc(=O)oc6)[C@@H](O)C[C@]5(O)[C@@H]4CC[C@@]1(C3)O2 | inactive | 1600 | – | – | – | –
O=C(OC[C@H]1O[C@@H](OC(=O)c2cc(O)c(O)c(O)c2)[C@H](OC(=O)c2cc(O)c(O)c(O)c2)[C@@H](OC(=O)c2cc(O)c(O)c(O)c2)[C@@H]1O)c1cc(O)c(O)c(O)c1 | inactive | – | – | – | – | –
O=C(OC[C@H]1O[C@@H](OC(=O)c2cc(O)c(O)c(O)c2)[C@H](OC(=O)c2cc(O)c(O)c(O)c2)[C@@H](O)[C@@H]1O)c1cc(O)c(O)c(O)c1 | inactive | – | 52.4 (≈ 33.4 µg/mL) | – | – | –
COC1=C2[C@@H]3CC[C@@]45C[C@@H]6C[C@@H](OC(C)(O6)O4)[C@]5(C)[C@H]3CC[C@]2(C)[C@@H](c2ccc(=O)oc2)C1=O | inactive | – | – | 142 (≈ 66.8 µg/mL) | – | –
CC12O[C@H]3C[C@@H](O1)[C@]1(C)[C@H]4CC[C@@]5(C)C(=CC(=O)[C@@H]5c5ccc(=O)oc5)[C@@H]4CC[C@@]1(C3)O2 | inactive | 1400 | – | 152 (≈ 66.7 µg/mL) | – | –
O=c1c2cc(O)c(O)cc2oc2cc(O)c([C@H]3O[C@@H](CO)[C@H](O)[C@@H](O)[C@@H]3O)c(O)c12 | inactive | – | – | 158 (≈ 66.7 µg/mL) | 36.7 (≈ 15.5 µg/mL) | 158 (≈ 66.7 µg/mL)
